From patent US20230181491A1, “COMPOSITIONS AND METHODS FOR THE TREATMENT AND MANAGEMENT OF INFLAMMATION USING HYDROXYNORKETAMINE” (SPIRIFY PHARMA INC., priority 2020, published 2023)
Counter-ions that a name gives are not always drawn. Like-named read-outs stand apart in the source and are kept apart here.

Experiments:
[1] = system: LPS-induced human primary monocytes; test: Release of cytokines (IL-6, TNF-α, IL-8, IL-1β) and PGE2 from LPS-induced human primary monocytes (ELISA, normalized to LPS = 100%); assay type: cell-based; details: for effect on secretion of all proinflammatory cytokines tested (IL-6, IL-1β, TNF-α, IL-8): 0.1 μM-250 μM; for inhibition at 50 µM / inhibition at 250 µM: Homo sapiens, Monocyte
[2] = system: human primary monocytes; test: Viability of human primary monocytes (Alamar Blue); details: 50 μM and 250 μM; for viability of human primary monocytes: then 24 h LPS
Description: Viability of human primary monocytes—viable human primary monocyte cells were counted using Alamar Blue. Treatment with toxic amounts of sodium fluoride (NaF at 250 μg/ml) was used as control.
To this end, human primary monocytes were incubated for 24 hours and 48 hours with (R,S)-ketamine, (2R,6R)-hydroxynorketamine, (R,S)-norketamine, and (R,S)-dehydronorketamine at concentrations of 50 μM and 250 μM. LPS alone and treatment with dexamethasone (1 μM) were used as controls. Monocyte cells' viability was measured using Alamar blue to evaluate toxicity of the agents.

[3] = system: rats; details: cited from earlier work
[4] = system: rodents; details: cited from earlier work
[5] = system: COVID-19 patients; details: cited from earlier work
[6] = system: radical prostatectomy patients; details: cited from earlier work
[7] = 50 μM and 250 μM, 24 h pre-treatment, then 24 h LPS
[8] = 50 μM and 250 μM, 48 h pre-treatment, then 24 h LPS
[9] = 30 min pre-treatment, then 24 h LPS
[10] = 50 μM, 48 h pre-treatment, then 24 h LPS
[11] = 250 μM, 30 min pre-treatment, then 24 h LPS, read-out: inhibition of LPS-induced IL-1β release
[12] = 250 μM, 30 min pre-treatment, then 24 h LPS, read-out: inhibition of LPS-induced IL-6 release
[13] = 250 μM, 30 min pre-treatment, then 24 h LPS, read-out: inhibition of LPS-induced IL-8 release
[14] = 250 μM, 30 min pre-treatment, then 24 h LPS, read-out: inhibition of LPS-induced TNF-α release
[15] = 250 μM, 24 h pre-treatment, then 24 h LPS, read-out: inhibition of LPS-induced IL-6 release
[16] = 250 μM, 24 h pre-treatment, then 24 h LPS, read-out: inhibition of LPS-induced TNF-α release
[17] = 250 μM, 48 h pre-treatment, then 24 h LPS, read-out: inhibition of LPS-induced TNF-α release
[18] = 250 μM, 30 min pre-treatment, then 24 h LPS
[19] = 250 μM, 24 h pre-treatment, then 24 h LPS

Compound | effect on IL-6 secretion [1, 7] | effect on LPS-induced IL-8 release [1, 7] | effect on PGE2 secretion [1, 7] | effect on TNF-α secretion [1, 7] | effect on IL-6 secretion [1, 8] | effect on PGE2 secretion [1, 8] | effect on TNF-α secretion [1, 8] | effect on secretion of all proinflammatory cytokines tested (IL-6, IL-1β, TNF-α, IL-8) [1, 9] | anesthetic effects [3] | other results
NC1(c2ccccc2Cl)CCC=CC1=O (racemic) [(R,S)-dehydronorketamine] | dramatically reduced all cytokines release | dramatically reduced all cytokines release | dramatically reduced | dramatically reduced all cytokines release | dramatically reduced all cytokines release | dramatically reduced | dramatically reduced all cytokines release |  |  | effect on LPS-mediated IL-8 release [1, 8]: dramatically reduced all cytokines release; viability of human primary monocytes ([2]; 24 h pre-treatment): highly toxic to the cells; viability of human primary monocytes ([2]; 48 h pre-treatment): induced a massive cells' mortality
CNC1(c2ccccc2Cl)CCCCC1=O (racemic) [(R,S)-ketamine hydrochloride] | inhibition in the secretion | without affecting IL-8 | inhibition in the secretion | inhibition in the secretion | inhibition of TNF-α, IL-6, and PGE2 secretion | inhibition of TNF-α, IL-6, and PGE2 secretion | inhibition of TNF-α, IL-6, and PGE2 secretion | potent inhibitory effect | produced anesthetic actions | inhibition at 50 µM [1, 10]: ~40%; inhibition at 250 µM [1, 11]: 30 to 60%; inhibition at 250 µM [1, 12]: 30 to 60%; inhibition at 250 µM [1, 13]: 30 to 60%; inhibition at 250 µM [1, 14]: 30 to 60%; inhibition at 250 µM [1, 15]: ~30%; inhibition at 250 µM [1, 16]: ~70%; inhibition at 250 µM [1, 17]: ~75%
NC1(c2ccccc2Cl)CCCCC1=O (racemic) [(R,S)-norketamine] | remained without any significant change | remained without any significant change | promoted the secretion of PGE2 | inhibited the secretion of TNF-α only at the higher dose tested | inhibited the secretion of TNF-α and IL-6 | promoted the secretion of the proinflammatory agent PGE2 at 250 μM | inhibited the secretion of TNF-α and IL-6 |  | produced anesthetic actions | 
N[C@@]1(c2ccccc2Cl)CCC[C@@H](O)C1=O [(2R,6R)-2-amino-2-(2-chlorophenyl)-6-hydroxycyclohexanone] | inhibition in the secretion | not affected | inhibition in the secretion | inhibition in the secretion | inhibition of TNF-α, IL-6, and PGE2 secretion | inhibition of TNF-α, IL-6, and PGE2 secretion | inhibition of TNF-α, IL-6, and PGE2 secretion | cytokines release decrease in a dose dependent manner |  | inhibition at 50 µM [1, 10]: ~20%; inhibition at 250 µM [1, 11]: ~20%; inhibition at 250 µM [1, 12]: ~20%; inhibition at 250 µM [1, 13]: ~20%; inhibition at 250 µM [1, 14]: ~30%; inhibition at 250 µM [1, 15]: ~35%; inhibition at 250 µM [1, 16]: ~40%; inhibition at 250 µM [1, 17]: ~55%; antidepressant-relevant behavioral responses [4]: exert antidepressant-relevant behavioral responses; safety to monocytes (viability), overall conclusion ([2]; 24 h and 48 h pre-treatment): monocytes safety
N[C@]1(c2ccccc2Cl)CCC[C@H](O)C1=O [(2S,6S)-hydroxynorketamine hydrochloride, (2S,65)-2-amino-2-(2-chlorophenyl)-6-hydroxycyclohexanone] |  | not affected |  |  |  |  |  | cytokines release decrease in a dose dependent manner |  | inhibition of LPS-induced TNF-α release [1, 10]: approx. 30%; inhibition of LPS-induced IL-1β release [1, 18]: ~20%; inhibition of LPS-induced IL-6 release [1, 18]: ~20%; inhibition of LPS-induced IL-8 release [1, 18]: ~20%; inhibition of LPS-induced TNF-α release [1, 18]: approx. 30%; inhibition of LPS-induced IL-6 release [1, 19]: about 10%; inhibition of LPS-induced TNF-α release [1, 19]: approx. 30%; inhibition of LPS-induced TNF-α release ([1]; 250 μM, 48 h pre-treatment, then 24 h LPS): approx. 40%; antidepressant-relevant behavioral responses [4]: exert antidepressant-relevant behavioral responses
Cc1ccc(-c2cc(C(F)(F)F)nn2-c2ccc(S(N)(=O)=O)cc2)cc1 [Celebrex] |  |  |  |  |  |  |  |  |  | PGE2 levels [5]: significantly reduced
C[C@@H]1C[C@H]2[C@@H]3CCC4=CC(=O)C=C[C@]4(C)[C@@]3(F)[C@@H](O)C[C@]2(C)[C@@]1(O)C(=O)CO [Dexamethasone, dexamethasone] |  |  |  |  |  |  |  |  |  | reduction of cytokines release ([1]; 10 μM, control, 30 min pre-treatment study (not shown)): about 60%
CN[C@]1(c2ccccc2Cl)CCCCC1=O [S-ketamine, (S)-ketamine] |  |  |  |  |  |  |  |  |  | surgery-associated increase in IL-6 [6]: attenuates; surgery-associated increase in TNF [6]: attenuates
(2R,6R;2S,6S)-HNK |  |  |  |  |  |  |  |  | no anesthetic or hyperlocomotor effects | 
